Data as given in PubChem BioAssay AID588725 (The Scripps Research Institute Molecular Screening Center, 2011).
The source made the active and inactive calls.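 Rule for the calls: active = versus DMSO control, mean enzyme activity at or below 80% or at or above 120%; inactive = between 80% and 120% mean enzyme activity.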

Experiments:
Assay in all cases: kinase activity changes across 48 kinases – biochemical, 33P-ATP radiometric, Reaction Biology, powder sample, selectivity assay for KLF5 inhibitor project, late-stage follow-up (AID 588725)
Aurora A = details: 48-kinase panel, 33P-ATP radiometric activity, at 10 µM
CDK5/p25 = details: 48-kinase panel, 33P-ATP radiometric activity, at 10 µM
CDK5/p35 = details: 48-kinase panel, 33P-ATP radiometric activity, at 10 µM
[1] = molecular target: Cyclin-dependent kinase 1 (Homo sapiens) (UniProt P06493); details: 48-kinase panel, 33P-ATP radiometric activity, at 10 µM
[2] = molecular target: Cyclin-dependent kinase 2 (Homo sapiens) (UniProt P24941); details: 48-kinase panel, 33P-ATP radiometric activity, at 10 µM
[3] = molecular target: Dual specificity mitogen-activated protein kinase kinase 1 (Homo sapiens) (UniProt Q02750); details: 48-kinase panel, 33P-ATP radiometric activity, MEK1, at 10 µM
[4] = molecular target: Epidermal growth factor receptor (Homo sapiens) (UniProt P00533); details: 48-kinase panel, 33P-ATP radiometric activity, EGFR, at 10 µM
[5] = molecular target: Glycogen synthase kinase-3 alpha (Homo sapiens) (UniProt P49840); details: 48-kinase panel, 33P-ATP radiometric activity, GSK3a, at 10 µM
[6] = molecular target: Glycogen synthase kinase-3 beta (Homo sapiens) (UniProt P49841); details: 48-kinase panel, 33P-ATP radiometric activity, GSK3b, at 10 µM
[7] = molecular target: Inhibitor of nuclear factor kappa-B kinase subunit alpha (Homo sapiens) (UniProt O15111); details: 48-kinase panel, 33P-ATP radiometric activity, IKKa, at 10 µM
[8] = molecular target: Inhibitor of nuclear factor kappa-B kinase subunit beta (Homo sapiens) (UniProt O14920); details: 48-kinase panel, 33P-ATP radiometric activity, IKKb, at 10 µM
JAK1 = details: 48-kinase panel, 33P-ATP radiometric activity, at 10 µM
JNK1 = details: 48-kinase panel, 33P-ATP radiometric activity, at 10 µM
MEK2 = details: 48-kinase panel, 33P-ATP radiometric activity, at 10 µM
MEKK2 = details: 48-kinase panel, 33P-ATP radiometric activity, at 10 µM
MEKK3 = details: 48-kinase panel, 33P-ATP radiometric activity, at 10 µM
MKK6 = details: 48-kinase panel, 33P-ATP radiometric activity, at 10 µM
MLK3 = details: 48-kinase panel, 33P-ATP radiometric activity, at 10 µM
[9] = molecular target: Mitogen-activated protein kinase 1 (Homo sapiens) (UniProt P28482); details: 48-kinase panel, 33P-ATP radiometric activity, ERK2, at 10 µM
[10] = molecular target: Mitogen-activated protein kinase 10 (Homo sapiens) (UniProt P53779); details: 48-kinase panel, 33P-ATP radiometric activity, JNK3, at 10 µM
[11] = molecular target: Mitogen-activated protein kinase 12 (Homo sapiens) (UniProt P53778); details: 48-kinase panel, 33P-ATP radiometric activity, P38g, at 10 µM
[12] = molecular target: Mitogen-activated protein kinase 14 (Homo sapiens) (UniProt Q16539); details: 48-kinase panel, 33P-ATP radiometric activity, P38a, at 10 µM
[13] = molecular target: Mitogen-activated protein kinase 3 (Homo sapiens) (UniProt P27361); details: 48-kinase panel, 33P-ATP radiometric activity, ERK1, at 10 µM
[14] = molecular target: Mitogen-activated protein kinase 9 (Homo sapiens) (UniProt P45984); details: 48-kinase panel, 33P-ATP radiometric activity, JNK2, at 10 µM
P38b = details: 48-kinase panel, 33P-ATP radiometric activity, at 10 µM
P38d = details: 48-kinase panel, 33P-ATP radiometric activity, at 10 µM
PKCa = details: 48-kinase panel, 33P-ATP radiometric activity, at 10 µM
PKCb1 = details: 48-kinase panel, 33P-ATP radiometric activity, at 10 µM
PKCb2 = details: 48-kinase panel, 33P-ATP radiometric activity, at 10 µM
PKCepsilon = details: 48-kinase panel, 33P-ATP radiometric activity, at 10 µM
PKCeta = details: 48-kinase panel, 33P-ATP radiometric activity, at 10 µM
[15] = molecular target: Protein kinase C delta type (Homo sapiens) (UniProt Q05655); details: 48-kinase panel, 33P-ATP radiometric activity, PKCd, at 10 µM
[16] = molecular target: Protein kinase C gamma type (Homo sapiens) (UniProt P05129); details: 48-kinase panel, 33P-ATP radiometric activity, PKCg, at 10 µM
[17] = molecular target: Protein kinase C iota type (Homo sapiens) (UniProt P41743); details: 48-kinase panel, 33P-ATP radiometric activity, PKCiota, at 10 µM
[18] = molecular target: Protein kinase C theta type (Homo sapiens) (UniProt Q04759); details: 48-kinase panel, 33P-ATP radiometric activity, PKCtheta, at 10 µM
[19] = molecular target: Protein kinase C zeta type (Homo sapiens) (UniProt Q05513); details: 48-kinase panel, 33P-ATP radiometric activity, PKCzeta, at 10 µM
[20] = molecular target: RAC-alpha serine/threonine-protein kinase (Homo sapiens) (UniProt P31749); details: 48-kinase panel, 33P-ATP radiometric activity, AKT1, at 10 µM
[21] = molecular target: RAC-beta serine/threonine-protein kinase (Homo sapiens) (UniProt P31751); details: 48-kinase panel, 33P-ATP radiometric activity, AKT2, at 10 µM
[22] = molecular target: RAC-gamma serine/threonine-protein kinase (Homo sapiens) (UniProt Q9Y243); details: 48-kinase panel, 33P-ATP radiometric activity, AKT3, at 10 µM
[23] = molecular target: Receptor tyrosine-protein kinase erbB-2 (Homo sapiens) (UniProt P04626); details: 48-kinase panel, 33P-ATP radiometric activity, ERBB2, at 10 µM
[24] = molecular target: Receptor tyrosine-protein kinase erbB-4 (Homo sapiens) (UniProt Q15303); details: 48-kinase panel, 33P-ATP radiometric activity, ERBB4, at 10 µM
[25] = molecular target: Ribosomal protein S6 kinase beta-1 (Homo sapiens) (UniProt P23443); details: 48-kinase panel, 33P-ATP radiometric activity, p70S6K, at 10 µM
[26] = molecular target: Serine/threonine-protein kinase B-raf (Homo sapiens) (UniProt P15056); details: 48-kinase panel, 33P-ATP radiometric activity, BRAF, at 10 µM
[27] = molecular target: Serine/threonine-protein kinase D1 (Homo sapiens) (UniProt Q15139); details: 48-kinase panel, 33P-ATP radiometric activity, PKCmu, at 10 µM
[28] = molecular target: Serine/threonine-protein kinase D3 (Homo sapiens) (UniProt O94806); details: 48-kinase panel, 33P-ATP radiometric activity, PKCnu, at 10 µM
p70S6Kb = details: 48-kinase panel, 33P-ATP radiometric activity, at 10 µM

Measured: enzyme activity

Sequence of Cyclin-dependent kinase 1 (Homo sapiens) (P06493 whole entry, looked up): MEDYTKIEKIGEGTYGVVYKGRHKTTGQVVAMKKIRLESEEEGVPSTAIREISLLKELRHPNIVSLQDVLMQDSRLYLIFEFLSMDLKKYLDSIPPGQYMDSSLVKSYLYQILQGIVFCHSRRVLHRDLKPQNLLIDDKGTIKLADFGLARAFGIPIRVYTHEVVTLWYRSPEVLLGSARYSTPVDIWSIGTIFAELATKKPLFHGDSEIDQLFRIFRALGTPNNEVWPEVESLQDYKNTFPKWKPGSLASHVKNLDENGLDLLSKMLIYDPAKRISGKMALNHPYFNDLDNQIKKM
Sequence of Inhibitor of nuclear factor kappa-B kinase subunit beta (Homo sapiens) (O14920 whole entry, looked up): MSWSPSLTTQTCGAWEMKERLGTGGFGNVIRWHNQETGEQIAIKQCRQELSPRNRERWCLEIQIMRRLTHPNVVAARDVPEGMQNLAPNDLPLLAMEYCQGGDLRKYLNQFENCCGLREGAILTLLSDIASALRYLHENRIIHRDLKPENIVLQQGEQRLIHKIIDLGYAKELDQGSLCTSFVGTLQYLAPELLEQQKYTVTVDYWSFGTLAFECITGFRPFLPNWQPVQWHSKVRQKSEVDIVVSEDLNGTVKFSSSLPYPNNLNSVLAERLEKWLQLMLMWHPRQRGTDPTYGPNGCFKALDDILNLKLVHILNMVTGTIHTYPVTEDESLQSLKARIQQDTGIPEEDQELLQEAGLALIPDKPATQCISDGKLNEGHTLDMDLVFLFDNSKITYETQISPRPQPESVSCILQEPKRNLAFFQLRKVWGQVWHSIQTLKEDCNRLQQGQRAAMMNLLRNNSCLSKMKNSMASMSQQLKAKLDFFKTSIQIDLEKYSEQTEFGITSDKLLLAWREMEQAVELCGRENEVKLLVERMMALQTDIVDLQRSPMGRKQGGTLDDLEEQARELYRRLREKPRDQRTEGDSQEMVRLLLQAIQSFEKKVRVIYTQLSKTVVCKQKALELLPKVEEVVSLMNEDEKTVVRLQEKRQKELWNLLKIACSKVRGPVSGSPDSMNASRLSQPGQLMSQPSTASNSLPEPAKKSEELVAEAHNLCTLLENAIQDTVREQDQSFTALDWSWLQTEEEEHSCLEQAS
Sequence of Protein kinase C iota type (Homo sapiens) (P41743 whole entry, looked up): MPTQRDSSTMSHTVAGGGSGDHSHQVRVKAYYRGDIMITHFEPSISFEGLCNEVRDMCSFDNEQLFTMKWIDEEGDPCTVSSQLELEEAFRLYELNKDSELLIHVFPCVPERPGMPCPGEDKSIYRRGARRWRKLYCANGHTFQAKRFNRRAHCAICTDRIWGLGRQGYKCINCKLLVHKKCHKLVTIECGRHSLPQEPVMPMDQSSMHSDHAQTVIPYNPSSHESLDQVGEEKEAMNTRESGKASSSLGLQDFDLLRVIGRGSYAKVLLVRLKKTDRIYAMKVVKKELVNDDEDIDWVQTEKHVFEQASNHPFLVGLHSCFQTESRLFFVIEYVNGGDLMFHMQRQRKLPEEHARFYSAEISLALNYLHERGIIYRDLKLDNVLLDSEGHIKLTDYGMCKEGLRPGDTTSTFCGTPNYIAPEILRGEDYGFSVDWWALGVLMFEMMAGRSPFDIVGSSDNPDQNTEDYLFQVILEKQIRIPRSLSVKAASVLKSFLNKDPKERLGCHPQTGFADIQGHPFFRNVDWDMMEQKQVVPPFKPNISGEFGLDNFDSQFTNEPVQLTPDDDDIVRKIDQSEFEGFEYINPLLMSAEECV
Sequence of Dual specificity mitogen-activated protein kinase kinase 1 (Homo sapiens) (Q02750 whole entry, looked up): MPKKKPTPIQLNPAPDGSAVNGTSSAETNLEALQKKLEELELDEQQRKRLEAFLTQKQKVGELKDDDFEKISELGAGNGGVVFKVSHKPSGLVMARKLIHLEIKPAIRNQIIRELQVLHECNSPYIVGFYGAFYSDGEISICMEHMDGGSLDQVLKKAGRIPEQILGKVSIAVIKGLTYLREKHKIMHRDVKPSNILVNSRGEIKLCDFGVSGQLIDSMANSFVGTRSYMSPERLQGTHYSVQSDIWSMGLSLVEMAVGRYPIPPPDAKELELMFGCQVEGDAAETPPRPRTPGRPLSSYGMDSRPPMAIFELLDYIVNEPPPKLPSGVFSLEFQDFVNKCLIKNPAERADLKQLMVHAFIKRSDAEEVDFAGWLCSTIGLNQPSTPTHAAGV
Sequence of RAC-alpha serine/threonine-protein kinase (Homo sapiens) (P31749 whole entry, looked up): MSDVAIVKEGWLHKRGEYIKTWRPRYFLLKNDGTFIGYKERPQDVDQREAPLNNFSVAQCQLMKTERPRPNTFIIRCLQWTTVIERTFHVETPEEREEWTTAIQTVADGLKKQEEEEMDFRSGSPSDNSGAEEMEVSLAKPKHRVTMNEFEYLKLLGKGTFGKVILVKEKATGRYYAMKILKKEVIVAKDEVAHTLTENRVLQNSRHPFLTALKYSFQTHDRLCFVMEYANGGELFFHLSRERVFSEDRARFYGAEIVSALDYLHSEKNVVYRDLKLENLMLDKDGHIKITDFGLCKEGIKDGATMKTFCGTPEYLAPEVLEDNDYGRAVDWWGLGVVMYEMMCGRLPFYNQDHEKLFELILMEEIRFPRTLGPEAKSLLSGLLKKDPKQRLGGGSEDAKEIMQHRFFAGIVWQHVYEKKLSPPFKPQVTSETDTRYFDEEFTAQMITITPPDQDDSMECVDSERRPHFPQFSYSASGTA
Sequence of Ribosomal protein S6 kinase beta-1 (Homo sapiens) (P23443 whole entry, looked up): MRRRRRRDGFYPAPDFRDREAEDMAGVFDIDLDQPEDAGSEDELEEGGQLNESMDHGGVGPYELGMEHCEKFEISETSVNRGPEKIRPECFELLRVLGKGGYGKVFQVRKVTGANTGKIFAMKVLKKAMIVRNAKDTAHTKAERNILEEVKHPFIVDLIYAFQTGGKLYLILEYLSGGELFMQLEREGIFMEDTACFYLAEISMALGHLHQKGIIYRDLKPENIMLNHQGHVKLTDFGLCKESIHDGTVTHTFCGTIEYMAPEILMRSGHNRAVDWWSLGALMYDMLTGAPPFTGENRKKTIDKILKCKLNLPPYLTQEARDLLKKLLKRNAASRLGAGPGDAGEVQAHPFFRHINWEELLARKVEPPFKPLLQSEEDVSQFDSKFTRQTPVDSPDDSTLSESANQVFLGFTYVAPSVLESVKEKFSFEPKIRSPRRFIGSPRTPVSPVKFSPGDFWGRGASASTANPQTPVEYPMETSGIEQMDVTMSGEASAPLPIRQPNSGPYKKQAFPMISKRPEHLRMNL
Sequence of Mitogen-activated protein kinase 1 (Homo sapiens) (P28482 whole entry, looked up): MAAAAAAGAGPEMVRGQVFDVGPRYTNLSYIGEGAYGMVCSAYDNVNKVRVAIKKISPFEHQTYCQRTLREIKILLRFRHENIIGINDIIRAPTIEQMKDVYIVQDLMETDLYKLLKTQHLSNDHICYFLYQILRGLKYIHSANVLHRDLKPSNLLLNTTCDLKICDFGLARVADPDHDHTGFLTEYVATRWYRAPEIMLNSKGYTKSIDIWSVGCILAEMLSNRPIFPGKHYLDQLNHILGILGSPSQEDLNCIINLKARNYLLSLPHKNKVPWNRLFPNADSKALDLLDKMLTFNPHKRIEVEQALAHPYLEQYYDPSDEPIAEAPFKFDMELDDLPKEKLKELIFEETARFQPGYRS
Sequence of Protein kinase C delta type (Homo sapiens) (Q05655 whole entry, looked up): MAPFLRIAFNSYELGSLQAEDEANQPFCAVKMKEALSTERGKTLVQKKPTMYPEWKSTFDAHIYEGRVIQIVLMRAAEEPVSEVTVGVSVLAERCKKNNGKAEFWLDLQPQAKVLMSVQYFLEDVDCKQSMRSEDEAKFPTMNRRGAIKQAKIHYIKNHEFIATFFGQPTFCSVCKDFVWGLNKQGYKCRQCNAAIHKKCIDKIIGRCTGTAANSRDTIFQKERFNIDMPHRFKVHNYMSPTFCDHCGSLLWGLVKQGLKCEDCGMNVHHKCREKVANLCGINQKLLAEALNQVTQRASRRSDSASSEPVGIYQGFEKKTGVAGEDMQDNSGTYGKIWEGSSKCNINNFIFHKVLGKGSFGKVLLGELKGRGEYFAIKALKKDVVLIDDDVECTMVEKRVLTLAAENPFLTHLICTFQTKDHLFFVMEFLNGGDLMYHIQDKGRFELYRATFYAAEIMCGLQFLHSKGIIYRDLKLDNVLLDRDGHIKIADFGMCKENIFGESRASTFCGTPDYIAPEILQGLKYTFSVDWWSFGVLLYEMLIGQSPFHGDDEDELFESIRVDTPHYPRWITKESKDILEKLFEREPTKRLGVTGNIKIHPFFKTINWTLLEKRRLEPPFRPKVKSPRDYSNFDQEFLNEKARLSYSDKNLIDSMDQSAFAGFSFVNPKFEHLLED
Sequence of Mitogen-activated protein kinase 3 (Homo sapiens) (P27361 whole entry, looked up): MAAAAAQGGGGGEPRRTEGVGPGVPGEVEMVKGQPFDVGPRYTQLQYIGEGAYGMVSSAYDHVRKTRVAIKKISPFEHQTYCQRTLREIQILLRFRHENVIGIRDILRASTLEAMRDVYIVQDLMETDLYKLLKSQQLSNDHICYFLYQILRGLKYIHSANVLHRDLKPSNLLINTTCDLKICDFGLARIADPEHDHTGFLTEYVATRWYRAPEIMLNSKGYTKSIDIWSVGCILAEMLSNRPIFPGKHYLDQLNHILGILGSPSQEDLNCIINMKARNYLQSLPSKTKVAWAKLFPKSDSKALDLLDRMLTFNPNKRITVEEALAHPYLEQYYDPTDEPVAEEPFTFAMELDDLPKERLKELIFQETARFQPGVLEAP
Sequence of Mitogen-activated protein kinase 14 (Homo sapiens) (Q16539 whole entry, looked up): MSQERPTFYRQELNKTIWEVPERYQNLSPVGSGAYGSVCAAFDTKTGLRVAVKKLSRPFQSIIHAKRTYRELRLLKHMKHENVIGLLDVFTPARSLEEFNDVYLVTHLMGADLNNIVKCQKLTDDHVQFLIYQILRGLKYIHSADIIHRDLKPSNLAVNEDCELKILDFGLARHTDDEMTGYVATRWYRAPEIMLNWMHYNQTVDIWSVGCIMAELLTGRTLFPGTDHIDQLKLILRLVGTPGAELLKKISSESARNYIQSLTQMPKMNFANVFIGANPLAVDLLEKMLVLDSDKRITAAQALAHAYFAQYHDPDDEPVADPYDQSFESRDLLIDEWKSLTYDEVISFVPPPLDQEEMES

CN(C(=O)CNC(=O)/C=C/c1cccc(Cl)c1)C1CCS(=O)(=O)CC1
inactive: Aurora A 95.4% | CDK5/p25 108% | CDK5/p35 106% | [1]; CDK1/cyclin A 106% | [1]; CDK1/cyclin B 103% | [2]; CDK2/cyclin A 95.5% | [2]; CDK2/cyclin E 113% | [3] 108% | [4] 98% | [5] 104% | [6] 112% | [7] 97.3% | [8] 107% | JAK1 91.3% | JNK1 101% | MEK2 105% | MEKK2 102% | MEKK3 99.6% | MKK6 103% | MLK3 101% | [9] 101% | [10] 102% | [11] 105% | [12] 96.3% | [13] 103% | [14] 108% | P38b 95.7% | P38d 98.3% | PKCa 99.6% | PKCb1 98.5% | PKCb2 102% | PKCepsilon 100% | PKCeta 107% | [15] 104% | [16] 100% | [17] 103% | [18] 98.8% | [19] 102% | [20] 104% | [21] 107% | [22] 98.7% | [23] 104% | [24] 97% | [25] 104% | [26] 100% | [27] 106% | [28] 105% | p70S6Kb 100%
